Values of other authors, collected in US20200039732A1, “DEVICES FOR DISPENSING A HYDROFLUOROOLEFIN VAPOCOOLANT COMPOSITION AS AN AEROSOL” (GEBAUER COMPANY, priority 2016, published 2020).
Like-named read-outs stand apart in the source and are kept apart here.

Settings: for Liquid Viscosity / Surface Tension: at 20° C.

| SMILES | Pvap (25° C.) | Pvap (80° C.) | Liquid Viscosity | Surface Tension |
| --- | --- | --- | --- | --- |
| FC(F)(F)/C=C/Cl [HCFO-1233zd, trans-1-chloro-3,3,3-trifluoropropene] | 0.108 MPa | 0.650 MPa | 0.319 cP | 14.039 dyne/cm |
| CCCl [Ethyl Chloride, chloroethane] | 0.135 MPa | 0.745 MPa | 0.279 cP | 19.5 dyne/cm |
| CC(C)C [Iso-Butane, isobutane] | 0.319 MPa | 1.5 MPa | 0.156 cP | 10.3 dyne/cm |
| F/C=C/C(F)(F)F [HFO-1234ze, trans-1,3,3,3-tetrafluoroprop-1-ene] | 0.484 MPa | 2.01 MPa | 0.489 cP | 13.3 dyne/cm |
| FC(F)CC(F)(F)F [HFC-245fa, 1,1,1,3,3-pentafluoropropane] | 0.124 MPa | 0.789 MPa | 0.402 cP | 13.6 dyne/cm |
| FCC(F)(F)F [HFC-134a, 1,1,1,2-tetrafluoroethane] | 0.665 MPa | 2.63 MPa | 0.202 cP | 8.69 dyne/cm |
